This is an account of results in ChEMBL document CHEMBL1201862, “PubChem BioAssay data set” (2004).

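Cultured in 96-well plates, cells were exposed to test compound for 48 hours across five concentrations. Here, GI50 denotes the concentration required for 50% inhibition of growth.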 Active and inactive are the calls of the source. Cut-off read from the data, not from the text of the source: active = GI50 up to about 1.1 µM and inactive = higher.

Some test systems named below: HOP-92; OVCAR-3; NCI-H23; RXF 393; KM12; HCT-116; UO-31; OVCAR-4; HCC 2998; DU-145; HL-60; UACC-257; OVCAR-5; MDA-MB-231; SNB-75; NCI/ADR-RES; MCF7; COLO 205; BT-549; SW-620.
Holding throughout (test): DTP human tumour cell line panel, 48 h

The term GI50 denotes the concentration that inhibits growth by half. Turning to `O=C(CC(O)(C(F)(F)F)C(F)(F)F)c1cc(CC(=O)C(O)(C(F)(F)F)C(F)(F)F)cc(CC(=O)C(O)(C(F)(F)F)C(F)(F)F)c1`, the GI50 is 0.984 µM (active) with HOP-92; 0.454 µM (active) in the test with OVCAR-3; 0.867 µM (active) with NCI-H23; 1.47 µM (inactive) in the test with RXF 393; 0.512 µM (active) with KM12; 0.76 µM (active) with HCT-116. Moreover, the GI50 in the test with UO-31 was 1.25 µM (inactive); in the test on OVCAR-4, 1.77 µM (inactive); in the test on HCC 2998, 1.54 µM (inactive); in the test on DU-145, 1.97 µM (inactive); in the test on HL-60, > 10 µM (inactive); with UACC-257, 1.95 µM (inactive). The GI50 is 3.01 µM (inactive) in the test with OVCAR-5; 1.64 µM (inactive) in the test with MDA-MB-231; 1.91 µM (inactive) with SNB-75; 1.85 µM (inactive) in the test with NCI/ADR-RES; 1.86 µM (inactive) in the test with MCF7; 1.61 µM (inactive) in the test with COLO 205. Further, the GI50 in the test on BT-549 is 1.71 µM (inactive); in the test with SW-620 it was 2.06 µM (inactive).
With `COC(=O)/C=C1/OC(c2ccc(Br)cc2)=C(Br)C1=O`, the GI50 in the test on HOP-92 was 7.48 µM (inactive); in the test with OVCAR-3, 4.35 µM (inactive); with NCI-H23, 6.7 µM (inactive); in the test with RXF 393 it was 4.94 µM (inactive); with KM12 it was 8.07 µM (inactive); with HCT-116 it was 3 µM (inactive). The GI50 was 11.7 µM (inactive) in the test with UO-31; 5.16 µM (inactive) with OVCAR-4; 7.66 µM (inactive) in the test with HCC 2998; 12.7 µM (inactive) in the test with DU-145; 2.06 µM (inactive) in the test with HL-60; 13.3 µM (inactive) in the test with UACC-257. For the same compound, the GI50 in the test on OVCAR-5 is 6.34 µM (inactive); in the test on MDA-MB-231, 2.43 µM (inactive); with SNB-75, 7.43 µM (inactive); in the test on NCI/ADR-RES it was 9.4 µM (inactive); in the test with MCF7 it was 10.5 µM (inactive); in the test on COLO 205, 1.89 µM (inactive). In addition, the GI50 is 5.28 µM (inactive) in the test with BT-549 and 2.6 µM (inactive) in the test on SW-620.
On to `COc1ccccc1C1C2=C(COC2=O)OC(C)(C)Oc2cc3c(cc21)OCO3` (stereo not given), for which the GI50 in the test with HOP-92 was 8.65 µM (inactive); with OVCAR-3, 2.73 µM (inactive); with NCI-H23, 3.89 µM (inactive); with RXF 393 it was 1.06 µM (active); in the test with KM12, 1.11 µM (active); with HCT-116 it was 3.75 µM (inactive). The GI50 in the test on UO-31 is 10 µM (inactive); in the test with OVCAR-4, 10.3 µM (inactive); in the test with HCC 2998, 7.29 µM (inactive); in the test with DU-145 it was 3.57 µM (inactive); in the test with HL-60, 1.35 µM (inactive); with UACC-257, 6.81 µM (inactive). For the same compound, the GI50 with OVCAR-5 is 13.4 µM (inactive); in the test on MDA-MB-231, 2.86 µM (inactive); with SNB-75 it was 3.59 µM (inactive); in the test on NCI/ADR-RES, 3.18 µM (inactive); with MCF7, 3.15 µM (inactive); with COLO 205 it was 1.04 µM (active). The GI50 was > 10 µM (inactive) with BT-549 and 3.67 µM (inactive) with SW-620.
With `CCOC(=O)c1c(Sc2ccc([N+](=O)[O-])cc2[N+](=O)[O-])nc2c3ccccc3ccn12`, the GI50 in the test on HOP-92 was 13.9 µM (inactive); with OVCAR-3, > 92.5 µM (inactive); in the test on NCI-H23 it was > 91 µM (inactive); in the test on RXF 393, 21 µM (inactive); in the test on KM12, > 100 µM (inactive); with HCT-116, > 91 µM (inactive). The GI50 in the test on UO-31 was > 41.9 µM (inactive); with OVCAR-4 it was 10.7 µM (inactive); in the test with HCC 2998, > 28.6 µM (inactive); in the test on DU-145, > 100 µM (inactive); in the test with HL-60, 11.5 µM (inactive); with UACC-257 it was > 100 µM (inactive). The GI50 with OVCAR-5 is > 100 µM (inactive); with MDA-MB-231, 29.1 µM (inactive); in the test with SNB-75, 13.3 µM (inactive); in the test with NCI/ADR-RES, > 71.9 µM (inactive); in the test on MCF7 it was > 100 µM (inactive); with COLO 205, > 100 µM (inactive). The figures for the GI50 in the test with BT-549 and with SW-620 were > 75.2 µM (inactive) and > 100 µM (inactive), respectively.
With `O=C(/C=C/c1ccc(Cl)cc1)c1ccccc(=O)c1O`, the GI50 was 3.54 µM (inactive) with HOP-92; 3.64 µM (inactive) in the test on OVCAR-3; 2.71 µM (inactive) in the test with NCI-H23; 2.81 µM (inactive) in the test on RXF 393; 1.53 µM (inactive) in the test on KM12; 0.957 µM (active) in the test on HCT-116. The GI50 in the test with UO-31 is 1.51 µM (inactive); in the test on OVCAR-4, 0.673 µM (active); with HCC 2998, 0.579 µM (active); in the test on DU-145, 2.61 µM (inactive); in the test on HL-60, 0.516 µM (active); in the test on UACC-257, 2.49 µM (inactive). The GI50 in the test with OVCAR-5 was 6.34 µM (inactive); with MDA-MB-231 it was 1.44 µM (inactive); in the test with SNB-75 it was 2.86 µM (inactive); with NCI/ADR-RES, 0.36 µM (active); in the test with MCF7, 2.43 µM (inactive); in the test on COLO 205, 1.23 µM (inactive). Also, the GI50 with BT-549 is 2.3 µM (inactive); with SW-620, 4.38 µM (inactive).
Regarding `COc1ccc(/N=N/c2ccc3oc(=O)c(C(=O)Nc4ccccc4)cc3c2)cc1`, the GI50 in the test with HOP-92, in the test with OVCAR-3, in the test on NCI-H23, in the test with RXF 393, in the test on KM12 and in the test with HCT-116 was > 10 µM (inactive) in each case. Also, the GI50 is 5.52 µM (inactive) in the test with UO-31; > 10 µM (inactive) in the test with OVCAR-4; > 10 µM (inactive) in the test with HCC 2998; > 6.85 µM (inactive) in the test with DU-145; 3.16 µM (inactive) in the test on HL-60; > 10 µM (inactive) in the test on UACC-257. Besides, the GI50 in the test with OVCAR-5 was > 10 µM (inactive); in the test with MDA-MB-231, > 10 µM (inactive); in the test on SNB-75, > 9.31 µM (inactive); in the test on NCI/ADR-RES it was > 10 µM (inactive); with MCF7 it was > 9.29 µM (inactive); with COLO 205, > 10 µM (inactive). The GI50 in the test with BT-549 and in the test with SW-620 was > 10 µM (inactive) in each case.
In the case of `C[C@H]1[C@H](C)CC[C@]2(C(=O)OC3OC(CO)C(O)C(O)C3O)CC[C@]3(C)C(=CC[C@@H]4[C@@]5(C)C[C@@H](O)[C@@H]6OC(=O)c7cc(O)c(O)c(O)c7-c7c(cc(O)c(O)c7O)C(=O)OC[C@@]6(CO)[C@@H]5CC[C@]43C)[C@H]12` (stereo not given in full), the GI50 was > 92.5 µM (inactive) with HOP-92; > 46.1 µM (inactive) with OVCAR-3; > 100 µM (inactive) in the test with NCI-H23; > 100 µM (inactive) with RXF 393; 58.6 µM (inactive) in the test with KM12; 46.7 µM (inactive) in the test with HCT-116. Besides, the GI50 in the test on UO-31 was 43.1 µM (inactive); in the test with OVCAR-4, 23.9 µM (inactive); with HCC 2998, > 100 µM (inactive); in the test with DU-145 it was > 100 µM (inactive); with HL-60 it was 39.2 µM (inactive); in the test on UACC-257, > 100 µM (inactive). Further, the GI50 in the test with OVCAR-5 was > 75.3 µM (inactive); in the test with MDA-MB-231 it was 19.5 µM (inactive); in the test with SNB-75, > 100 µM (inactive); in the test with NCI/ADR-RES, > 100 µM (inactive); in the test with MCF7 it was 18.6 µM (inactive); with COLO 205, > 100 µM (inactive). In addition, the GI50 with BT-549 was > 100 µM (inactive); in the test on SW-620, 28.6 µM (inactive).
`COC(=O)c1cc(C(=CCC[C@H]2CC[C@@]3(C)C(CCC4C3CC[C@@]3(C)C4CC[C@@H]3C(C)CCCC(C)C)C2)c2cc(Cl)c(OC(=O)c3ccccc3)c(C(=O)OC)c2)cc(Cl)c1OC(=O)c1ccccc1` (stereo not given in full): the GI50 with HOP-92, in the test with OVCAR-3, with NCI-H23, with RXF 393, with KM12 and in the test with HCT-116 was > 10 µM (inactive) each time. The GI50 with UO-31, in the test with OVCAR-4, with HCC 2998, with DU-145, with HL-60 and in the test on UACC-257 was > 10 µM (inactive) each time. For the same compound, the GI50 in the test on OVCAR-5, in the test with MDA-MB-231, in the test on SNB-75, in the test with NCI/ADR-RES, in the test on MCF7 and in the test with COLO 205 was > 10 µM (inactive) in each case. Besides, the GI50 in the test on BT-549 and with SW-620 was > 10 µM (inactive) each time.
With `COC(=O)c1cc(OC)c(OC)c(OC)c1-c1cc2c(cc1C=O)OCO2`, the GI50 with HOP-92, in the test on OVCAR-3, with NCI-H23, with RXF 393, with KM12 and with HCT-116 was > 10 µM (inactive) each time. Further, the GI50 in the test with UO-31, with OVCAR-4, in the test on HCC 2998, with DU-145, in the test with HL-60 and in the test on UACC-257 was > 10 µM (inactive) throughout. In addition, the GI50 in the test with OVCAR-5, with MDA-MB-231, in the test on SNB-75, with NCI/ADR-RES, in the test on MCF7 and with COLO 205 was > 10 µM (inactive) each time. In addition, the GI50 with BT-549 and with SW-620 was > 10 µM (inactive) each time.
